Experimental data published in patent publication EP4140481A1, “PROTEIN-OLIGOMER BINDING AGENTS AND THERAPEUTIC USES THEREOF” (Galyan Bio, Inc., priority 2021, dated 2023).

What was measured:
mHTT = molecular target: T1, mHTT (Homo sapiens, UniProt P42858); assay: mHTT levels in striatal cells (immunocytochemistry); type: cell-based, mouse; conditions: for remaining activity at 10 µM / mHTT after treatment / Nuclear mHTT after treatment: 3 hours heat shock, 48 hours treatment; for remaining activity at 10 µM / mHTT after treatment: percentage in comparison to untreated STHdh 111/111, 3B5H10 antibody, 10 µM; for remaining activity at 10 µM: read-out: mHTT after treatment
T1 construct: host or cells: ST HDH Q111/111 mouse striatal cell line (knock-in locus)
Procedure: (§1) Staining - Cells were permeabilized with 0.3% Triton X-100 in 4 °C PBS (pH 7.4 from ThermoFisher) for 10 minutes. Then the cells were washed two times with 4 °C PBS. Subsequently, cells are blocked with 3% NGS (normal goat serum from Thermo Fisher) in 4 ° C PBS for 1 hour. Cells were incubated with primary antibodies in blocking buffer (PBS, 3% NGS, 0.02% NaN3) over night at 4 °C. Primary antibodies were mouse antipolyglutamine monoclonal antibody 3B5H10 (Sigma-Aldrich) at 1:250 dilution and Guinea Pig anti-MAP2 polyclonal antibody (Synaptic Systems) at 1:500 dilution. 3B5H10 binds to diffuse mHTT. Diffuse mHTT is a monomeric and small oligomeric mHTT. Diffuse mHTT is correlated to pathological parameters in Huntington's disease. Compounds that bind the mHTT will reduce the levels of diffuse mHTT detected.
Cells were washed 2 times with 4 °C PBS, and then incubated with secondary antibodies at 1:2000 dilution in blocking buffer for 1hour at room temperature. […] Cells were washed 2 times with 4 °C PBS, and then the nuclei were counterstain with DAPI (ThermoFisher) for 10 min at room temperature in the dark. Cells were washed 2 times with 4 °C PBS, and then 4 °C PBS was added to cells and then images were acquired. […] Table 11: Antibodies Used in Immunocytochemistry Studies
Fluorescence Imaging - Imaging sessions were performed on a confocal microscope system (Carl Zeiss Microscopy) equipped with a dual spinning disk unit (Yokogawa). All components of the imaging system were controlled via the ZEN 2 software suite (Carl Zeiss Microscopy). The laser lines used were 405 nm, 488 nm and 639 nm to excite DAPI or the respective fluorophores. […] Nested t test was performed to calculate the significance amongst repeated measurements using GraphPad Prism software.
as §1, with “For LC3 staining primary antibodies were mouse anti-LC3 mab (5F10) (nanoTools) at 1:500 dilution” for “3B5H10 binds to diffuse mHTT. Diffuse mHTT is a monomeric”, “Guinea Pig anti-MAP2 polyclonal antibody (Synaptic Systems) at 1:500 dilution.” for “small oligomeric mHTT. Diffuse mHTT is correlated to pathological parameters in Huntington's disease. Compounds that bind the mHTT will reduce the levels of diffuse mHTT detected.”
Cells were washed 2 times with 4 °C PBS, and then incubated with secondary antibodies at 1:2000 dilution in blocking buffer for 1hour at room temperature. […] Cells were washed 2 times with 4 °C PBS, and then the nuclei were counterstain with DAPI (ThermoFisher) for 10 min at room temperature in the dark. Cells were washed 2 times with 4 °C PBS, and then 4 °C PBS was added to cells and then images were acquired.
EC 50 value was determined with non-linear regression.

Exon1 Q46 = Exon1 Q46 (Homo sapiens, UniProt P42858, INS38QQQQQQQQQQQQQQQQQQQQQQQQQ); assay: Circular dichroism study; type: binding; conditions: Exon1 Q46
Procedure: Protein samples were diluted with buffer to 7.5 µM prior to Circular Dichroism (CD) measurements. Measurements were conducted at room temperature.
Four spectra at each measurement were taken every 1 nm from 200 to 260 nm, scanning at 50 nm/min with an averaging time of 1 sec. Spectra were obtained from samples in 20 mM phosphate, pH 7.4. Ten scans were averaged for each sample spectrum
Single-wavelength readings at 222 nm were obtained. After subtraction of the Trx contribution, the α-helical content of Httex1 was estimated from its mean residue ellipticity (MREHttex1) at 222 nm. This calculation was conducted as described by Bravo-Arredondo (Bravo-Arredondo, J.M. et al., J Biol Chem. 2018 Dec 21;293(51):19613-19623).
MRE Exon-1 Q16 and Q46 (Mean Residue Ellipticity) was measured every 1 sec for 300 sec; the 301 readings for each sample were averaged and MRE Trx subtracted. The number of amino acids in each sample to experience a change in helicity was estimated using a previously developed helix-coil transition model, which gave the change in fraction of helicity (ΔfHelix) by the following equation: fHelix = (MREHttex1 −MRECoil)/(MREHelix −MRECoil) [formula] where MRE Exon1 Q26 or Q46 (MREHttex1 in the formula) describes the helix-coil transition, obtained from the difference between MRE Eon1 Q26 or Q46 at 222 nm of the fusion protein at the given temperature (in our case 37 °C) and the product of MRE Trx at 222 nm at the same temperature and the fraction of residues comprised by Trx in that particular construct, and MRECoil = 2220−53T,MREHelix =; (−44,000+250T)(1−(3)/(Nr)) [formula] given T as the temperature in °C and Nr as the number of residues.
In order to calculate an equilibrium of the two states model, percent α-helicity was calculated using the relation of MREHttex1 = 0 and -34700 (deg cm^2 dmol^-1) for 0% and 100% helicity, respectively. Table 14: Comparison between Kd, reversal of conformational changes of Exon1 Q46 and reduction of mHTT in comparison to untreated striatal neurons
The CD measurements protocol for Compound 101 was the same as outlined above except that from 206 nm - 210 nm and 220 nm - 224 nm, the step size was 0.2 nm, and the bandwidth was 1nm.

T1 sequence (P42858 with tags, fused parts or gaps with the stated changes): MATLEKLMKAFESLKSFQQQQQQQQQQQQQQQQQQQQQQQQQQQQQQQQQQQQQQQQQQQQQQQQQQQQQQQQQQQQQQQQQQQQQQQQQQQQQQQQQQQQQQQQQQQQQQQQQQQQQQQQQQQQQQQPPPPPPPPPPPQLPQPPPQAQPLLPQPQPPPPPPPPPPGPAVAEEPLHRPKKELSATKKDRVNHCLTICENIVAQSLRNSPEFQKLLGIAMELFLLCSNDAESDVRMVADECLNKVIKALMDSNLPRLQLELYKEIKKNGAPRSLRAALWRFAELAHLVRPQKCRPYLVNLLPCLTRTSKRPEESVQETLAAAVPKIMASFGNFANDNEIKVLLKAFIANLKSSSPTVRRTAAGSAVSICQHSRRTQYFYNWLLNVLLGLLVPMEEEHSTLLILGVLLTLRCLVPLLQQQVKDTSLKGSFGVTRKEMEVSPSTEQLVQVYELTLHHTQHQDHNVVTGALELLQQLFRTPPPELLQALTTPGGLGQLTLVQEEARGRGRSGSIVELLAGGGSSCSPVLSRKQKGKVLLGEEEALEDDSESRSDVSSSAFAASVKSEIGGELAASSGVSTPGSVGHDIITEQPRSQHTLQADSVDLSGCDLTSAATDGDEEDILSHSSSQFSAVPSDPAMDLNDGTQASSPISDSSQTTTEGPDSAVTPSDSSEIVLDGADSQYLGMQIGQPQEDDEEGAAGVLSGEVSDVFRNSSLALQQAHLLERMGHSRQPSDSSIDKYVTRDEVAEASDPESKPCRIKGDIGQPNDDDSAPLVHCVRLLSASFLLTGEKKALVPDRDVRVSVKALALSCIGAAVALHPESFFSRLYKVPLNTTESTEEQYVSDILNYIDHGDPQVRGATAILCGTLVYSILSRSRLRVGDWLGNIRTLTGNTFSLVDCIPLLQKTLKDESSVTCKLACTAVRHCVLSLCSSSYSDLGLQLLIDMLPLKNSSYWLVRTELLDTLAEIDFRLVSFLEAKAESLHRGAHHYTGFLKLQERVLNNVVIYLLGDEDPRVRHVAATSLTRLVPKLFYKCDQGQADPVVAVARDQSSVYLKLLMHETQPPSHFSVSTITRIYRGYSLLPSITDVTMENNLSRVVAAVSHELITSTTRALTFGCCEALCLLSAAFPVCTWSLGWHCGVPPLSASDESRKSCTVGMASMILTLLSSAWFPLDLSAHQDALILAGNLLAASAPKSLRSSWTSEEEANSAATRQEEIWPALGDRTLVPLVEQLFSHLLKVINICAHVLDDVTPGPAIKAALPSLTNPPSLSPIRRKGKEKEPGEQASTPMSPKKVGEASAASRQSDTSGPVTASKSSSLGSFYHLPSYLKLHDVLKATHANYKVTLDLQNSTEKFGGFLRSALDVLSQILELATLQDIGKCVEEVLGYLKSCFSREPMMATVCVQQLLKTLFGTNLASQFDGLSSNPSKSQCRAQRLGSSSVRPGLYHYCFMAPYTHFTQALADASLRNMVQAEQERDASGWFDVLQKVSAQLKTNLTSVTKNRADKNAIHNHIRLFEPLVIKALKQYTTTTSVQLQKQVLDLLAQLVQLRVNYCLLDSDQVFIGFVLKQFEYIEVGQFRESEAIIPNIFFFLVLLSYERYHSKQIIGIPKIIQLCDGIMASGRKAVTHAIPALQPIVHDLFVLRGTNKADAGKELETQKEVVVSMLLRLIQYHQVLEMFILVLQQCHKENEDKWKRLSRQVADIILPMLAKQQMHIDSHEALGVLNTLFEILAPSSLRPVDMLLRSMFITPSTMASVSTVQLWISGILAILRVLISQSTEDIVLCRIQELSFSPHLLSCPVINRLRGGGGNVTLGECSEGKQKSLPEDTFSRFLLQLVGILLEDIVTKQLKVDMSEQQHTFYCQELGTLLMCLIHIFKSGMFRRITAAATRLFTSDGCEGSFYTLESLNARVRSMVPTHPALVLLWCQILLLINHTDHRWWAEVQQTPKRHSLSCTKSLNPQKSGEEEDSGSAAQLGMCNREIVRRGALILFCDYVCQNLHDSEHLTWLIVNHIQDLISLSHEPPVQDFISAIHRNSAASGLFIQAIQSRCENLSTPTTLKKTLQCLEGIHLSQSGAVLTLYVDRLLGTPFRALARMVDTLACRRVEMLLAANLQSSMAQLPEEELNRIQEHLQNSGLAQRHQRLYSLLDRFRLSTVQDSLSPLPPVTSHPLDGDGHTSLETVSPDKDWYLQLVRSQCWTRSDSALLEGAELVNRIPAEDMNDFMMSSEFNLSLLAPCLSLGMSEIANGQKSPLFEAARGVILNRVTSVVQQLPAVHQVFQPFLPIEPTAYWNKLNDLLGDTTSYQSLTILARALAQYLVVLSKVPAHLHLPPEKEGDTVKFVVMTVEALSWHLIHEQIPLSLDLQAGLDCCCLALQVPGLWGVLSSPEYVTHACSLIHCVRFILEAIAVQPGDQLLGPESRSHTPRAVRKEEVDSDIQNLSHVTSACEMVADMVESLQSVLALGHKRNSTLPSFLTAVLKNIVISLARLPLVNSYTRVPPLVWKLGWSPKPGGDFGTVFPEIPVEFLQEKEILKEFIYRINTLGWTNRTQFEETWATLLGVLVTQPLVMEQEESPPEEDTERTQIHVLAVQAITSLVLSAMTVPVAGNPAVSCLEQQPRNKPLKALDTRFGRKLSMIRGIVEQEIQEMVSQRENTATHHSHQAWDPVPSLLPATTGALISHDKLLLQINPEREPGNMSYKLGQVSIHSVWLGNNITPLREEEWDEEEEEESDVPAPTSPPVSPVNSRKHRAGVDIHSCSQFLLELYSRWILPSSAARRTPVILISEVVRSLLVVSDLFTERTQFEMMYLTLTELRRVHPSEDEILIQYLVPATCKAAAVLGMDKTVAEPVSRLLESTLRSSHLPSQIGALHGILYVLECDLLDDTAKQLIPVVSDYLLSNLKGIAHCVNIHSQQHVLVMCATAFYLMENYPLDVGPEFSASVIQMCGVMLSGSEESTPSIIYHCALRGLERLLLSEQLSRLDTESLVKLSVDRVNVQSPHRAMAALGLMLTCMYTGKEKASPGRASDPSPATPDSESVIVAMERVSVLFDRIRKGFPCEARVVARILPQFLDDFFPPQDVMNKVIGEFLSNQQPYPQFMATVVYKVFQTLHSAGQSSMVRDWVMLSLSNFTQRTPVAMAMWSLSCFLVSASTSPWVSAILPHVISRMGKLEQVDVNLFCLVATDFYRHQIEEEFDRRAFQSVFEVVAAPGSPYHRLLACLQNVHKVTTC
Chain of Exon1 Q46 (P42858 with tags, fused parts or gaps with the stated changes): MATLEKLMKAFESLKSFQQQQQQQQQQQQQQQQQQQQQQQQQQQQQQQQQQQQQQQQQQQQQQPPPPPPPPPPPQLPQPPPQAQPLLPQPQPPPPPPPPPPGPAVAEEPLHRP

| Compound | remaining activity at 10 µM (mHTT; STHdh 111/111) | further results |
| --- | --- | --- |
| CCc1c(C)[nH]c2ccc(C(=O)NCCN(C)C)cc12 [Compound 1] | 30% | – |
| Cc1[nH]c2ccc(C(=O)NCCN3CCOCC3)cc2c1C [Compound 2, 2,3-dimethyl-N-(2-morpholinoethyl)-1H-indole-5-carboxamide] | 32% | – |
| CN(C)CCNC(=O)c1ccc2[nH]c3c(c2c1)CCCC3 [Compound 3] | 33% | – |
| CN(C)CCNC(=O)c1ccc2[nH]c3c(c2c1)CCC3 [Compound 5] | 36% | – |
| O=C(NCCN1CCOCC1)c1ccc2[nH]c3c(c2c1)CCC3 [Compound 8] | 38% | – |
| CN1CCN(CCNC(=O)c2ccc3[nH]c4c(c3c2)CCC4)CC1 [Compound 10] | 40% | – |
| CCc1[nH]c2ccc(C(=O)NCCN3CCCC3)cc2c1C [Compound 11] | 40% | – |
| O=C(NCCN1CCOCC1)c1ccc2[nH]c3c(c2c1)CCCC3 [Compound 12] | 40% | – |
| O=C(NCCN1CCCC1)c1ccc2[nH]c3c(c2c1)CCCC3 [Compound 13] | 41% | – |
| CCc1c(C)[nH]c2ccc(C(=O)NCCN3CCN(C)CC3)cc12 [Compound 15] | 42% | – |
| O=C(NCCN1CCCCC1)c1ccc2[nH]c3c(c2c1)CCCC3 [Compound 16] | 43% | – |
| Cc1[nH]c2ccc(C(=O)NCCN3CCC3)cc2c1C [Compound 17, N-(2-(Azetidin-1-yl)ethyl)-2,3-dimethyl-1H-indole-5-carboxamide] | 44% | – |
| CCN(CC)CCNC(=O)c1ccc2c(c1)c(C)c(C)n2C [Compound 19, N-(2-(Diethylamino)ethyl)-1,2,3-dimethyl-1H-indole-5-carboxamide] | – | mHTT after treatment (mHTT; STHdh 111/111): 45% |
| O=C(NCCN1CCC1)c1ccc2[nH]c3c(c2c1)CCCC3 [Compound 20] | 45% | mHTT reduction with MG132 in comparison to without MG132 (mHTT; STHdh 111/111 striatal cells): less |
| CCN(CC)CCNC(=O)c1ccc2[nH]c(C)c(C)c2c1 [Compound 21, N-(2-(Diethylamino)ethyl)-2,3-dimethyl-1H-indole-5-carboxamide] | 46% | – |
| CCc1[nH]c2ccc(C(=O)NCCN3CCCCC3)cc2c1C [Compound 23] | 47% | – |
| Cc1c(C)n(C)c2ccc(C(=O)NCCN3CCN(C)C(C)C3)cc12 (centres unmarked) [Compound 25, N-(2-(3,4-Dimethylpiperazin-1-yl)ethyl)-1,2,3-trimethyl-1H-indole-5-carboxamide] | 48% | – |
| CCN(CC)CCNC(=O)c1ccc2[nH]c3c(c2c1)CCC3 [Compound 27] | 50% | – |

| Compound | remaining activity at 10 µM (mHTT; STHdh 111/111) | further results |
| --- | --- | --- |
| Cc1[nH]c2ccc(C(=O)NCCN3CCCC3)cc2c1C [Compound 29, 2,3-Dimethyl-N-(2-(pyrrolidin-1-yl)ethyl)-1H-indole-5-carboxamide] | 51% | – |
| CCc1[nH]c2ccc(C(=O)NCCN3CCOCC3)cc2c1C [Compound 30] | 51% | – |
| Cc1c(C)n(C)c2ccc(C(=O)NCCN3CCCCC3)cc12 [Compound 31, 1,2,3-Trimethyl-N-(2-(piperidin-1-yl)ethyl)-1H-indole-5-carboxamide] | 52% | – |
| CCc1c(C)[nH]c2ccc(C(=O)NCCN3CCOCC3)cc12 [Compound 32] | 53% | – |
| CCc1c(C)[nH]c2ccc(C(=O)NCCN3CCC3)cc12 [Compound 33] | 55% | – |
| CN1CCN(CCNC(=O)c2ccc3[nH]c4c(c3c2)CCCC4)CC1 [Compound 36] | 56% | – |
| CCc1[nH]c2ccc(C(=O)NCCN(C)C)cc2c1C [Compound 37] | 56% | – |
| CCc1[nH]c2ccc(C(=O)NCCN(CC)CC)cc2c1C [Compound 38] | 57% | – |
| Cc1c(C)n(C)c2ccc(C(=O)NCCN(C)C)cc12 [Compound 41, N-(2-(Dimethylamino)ethyl)-1,2,3-trimethyl-1H-indole-5-carboxamide] | 65% | – |
| O=C(NCCN1CCC1)c1ccc2[nH]c3c(c2c1)CCC3 [Compound 42] | 65% | – |
| CC(C)N(CCNC(=O)c1ccc2[nH]ccc2c1)C(C)C [Compound 43] | 65% | – |
| Cc1c(C)n(C)c2ccc(C(=O)NCCN3CCC3)cc12 [Compound 44, N-(2-(Azetidin-1-yl)ethyl)-1,2,3-dimethyl-1H-indole-5-carboxamide] | – | mHTT after treatment (mHTT; STHdh 111/111): 66% |
| Cc1c(C)n(C)c2ccc(C(=O)NCCN3CCCC3)cc12 [Compound 46, 1,2,3-Trimethyl-N-(2-(pyrrolidin-1-yl)ethyl)-1H-indole-5-carboxamide] | 66% | – |
| Cc1[nH]c2ccc(C(=O)NCCN3CCCCC3)cc2c1C [Compound 47, 2,3-Dimethyl-N-(2-(piperidin-1-yl)ethyl)-1H-indole-5-carboxamide] | 66% | – |
| Cc1c(C)n(C)c2ccc(C(=O)NCCN3CCCCC3C)cc12 (centres unmarked) [Compound 48] | 68% | – |
| Cc1[nH]c2ccc(C(=O)NC3CCC(N(C)C)CC3)cc2c1C (centres unmarked) [Compound 101, N-(4-(dimethylamino)cyclohexyl)-2,3-dimethyl-1H-indole-5-carboxamide] | 38% | mHTT after 3 h heat shock and following 48 hours of compound treatment in comparison to untreated STHdh 111/111 (mHTT; STHdh 111/111): 38%; Kd (Exon1 Q46): 70 nM; Fraction Helix fH (Exon1 Q46; conc. Compound 0.01 µM): 20.5%; Fraction Helix fH (Exon1 Q46; conc. Compound 0.059 µM): 20.1%; Fraction Helix fH (Exon1 Q46; conc. Compound 0.158 µM): 19.9%; Fraction Helix fH (Exon1 Q46; conc. Compound 0.647 µM): 19.1%; Fraction Helix fH (Exon1 Q46; conc. Compound 1.62 µM): 19.0%; Fraction Helix fH (Exon1 Q46; conc. Compound 4.04 µM): 18.5%; Fraction Helix fH (Exon1 Q46; conc. Compound 13.68 µM): 18.7%; Fraction Helix fH (Exon1 Q46; conc. Compound 37.77 µM): 18.2% |
| Cc1[nH]c2ccc(S(=O)(=O)NCCN3CCOCC3)cc2c1C [Compound 127] | – | Nuclear mHTT after treatment (mHTT; STHdh 111/111): 23.9% |
| Cc1[nH]c2ccc(S(=O)(=O)NCCN3CCCCC3)cc2c1C [Compound 128] | – | Nuclear mHTT after treatment (mHTT; STHdh 111/111): 79.9% |
